From patent publication US10617118B2, “Low foam surfactant composition and methods of making the same” (Momentive Performance Materials Inc., priority 2015, dated 2020)

Experiments:
[1] = system: Velvetleaf (Abutilion theophrasti); assay: Effect of adjuvant on glyphosate-IPA efficacy on velvetleaf (spray application); assay type: in vivo; conditions: 1.0 wt % Gly-IPA, adjuvant 0.1 wt %, 100 L/ha, simulated rain 2 hours after treatment, visual scale of 0-100%
Procedure: Velvetleaf plants were grown from seed indoor, under full sunlight intensity lamps, in individual pots, and then thinned to one plant per pot. Plants were fertilized as necessary (NPK 20-20-20). Glyphosate spray applications were applied when the plants reached the 3-4 true leaf stage.
Velvetleaf was treated with 1.0 wt % Gly-IPA, with and without adjuvant, at a spray volume equivalent to 100 L/ha. When adjuvant was used, it was included in the spray at 0.1 wt %. Applications were made using a track sprayer with a TeeJet 8002 nozzle. Simulated rain (2.5 cm) was applied 2 hours after treatment. Glyphosate efficacy was determined 7 and 14 days after treatment (DAT). using a visual scale of 0-100%, where 0 indicates no effect and 100 indicates total weed control.

[2] = Spreading: spread diameter of 10 μL drop on polystyrene Petri-dish; assay type: physicochemical; conditions: Table 11, after 30 seconds
Procedure: Spreading was determined using between 0.1% and 0.4% (actives) surfactant. Solutions were prepared in Milli-Pore water (deionized) where a 10 μL drop was placed on a polystyrene surface (Petri-dish) and the spread diameter, in mm is determined after 30 seconds.

Molecule: CC(C)N.O=C(O)CNCP(=O)(O)O [None, glyphosate-isopropylamine]
- Glyphosate-IPA efficacy on velvetleaf, 7 DAT ([1]; 7 DAT): 33%
- Glyphosate-IPA efficacy on velvetleaf, 14 DAT ([1]; 14 DAT): 37%

Molecule: Triton X-100
- Spread Diameter (mm) 0.2 Wt % [2]: 7 mm
